Assay results: article PMC10294837 (Antioxidants, 2023)
Read-outs that look alike come from different tables or passages of the source.

Experiments:
[1] = test system: complex I-linked respiration in isolated mitochondria; experiment: Complex I-linked respiration, high-resolution respirometry in isolated mitochondria; assay type: biochemical, pig; conditions: for IC50: four-parameter logistic; for IC50 / Residual Activity, complex I-linked respiration: mean ± SEM, four measurements
Description: (§1) The mitochondrial fraction was isolated and purified from the pig brain cortex. For high-resolution respirometry and ATP assays, freshly prepared mitochondria were kept on ice. Part of the mitochondria was frozen, stored at −70 °C, and used to determinate mitochondrial enzymes activities (ETC complexes, CS, malate dehydrogenase, and MAO).
The high-resolution Oxygraph-2k (Oroboros Instruments Corp, Innsbruck, Austria) was used to measure mitochondrial oxygen consumption rate.
(§2) Respiration rate (oxygen flux) was quantified as the number of pmol of oxygen consumed per second per mg of a protein.
(§3) Four-parametric logistic regression was used to analyze inhibition of respiratory rate and MAO activity to determine half-maximal inhibitory concentration (IC50), residual activity, and Hill slope. Prism software from GraphPad (San Diego, CA, USA) was used for this analysis.

MAO-A = biological target: T1, MAO-A (Sus scrofa, UniProt Q6Q2J0); experiment: MAO-A activity, radiolabeled [3H]serotonin substrate, pig brain mitochondria; assay type: biochemical
T1 construct: from tissue; host or cells: pig brain cortex mitochondria
T1 sequence (Q6Q2J0 1-527): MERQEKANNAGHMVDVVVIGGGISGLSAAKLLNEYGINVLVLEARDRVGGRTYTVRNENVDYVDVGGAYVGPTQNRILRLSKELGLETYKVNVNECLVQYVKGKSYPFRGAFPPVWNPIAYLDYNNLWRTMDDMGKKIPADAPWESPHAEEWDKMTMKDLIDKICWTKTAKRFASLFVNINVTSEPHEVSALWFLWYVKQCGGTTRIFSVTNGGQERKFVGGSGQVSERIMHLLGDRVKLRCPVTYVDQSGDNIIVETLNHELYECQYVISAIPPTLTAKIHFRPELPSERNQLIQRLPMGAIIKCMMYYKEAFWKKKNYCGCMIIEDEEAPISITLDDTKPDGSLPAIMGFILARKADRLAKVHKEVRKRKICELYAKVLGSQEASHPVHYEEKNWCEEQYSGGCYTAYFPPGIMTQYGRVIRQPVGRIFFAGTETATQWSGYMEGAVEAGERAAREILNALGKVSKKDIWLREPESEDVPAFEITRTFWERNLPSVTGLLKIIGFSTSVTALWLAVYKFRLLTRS
Description: (§4) KH buffer was used to preincubate mitochondria (final concentration of 800 µg/mL) with the tested drugs (concentration range of 0.1–300 µmol/L). MAO enzymatic activity was measured using radiolabeled substrates ([^3H]serotonin for MAO-A and [^14C]PEA for MAO-B). The reaction was terminated with hydrochloric acid, the organic phase was separated, and the radioactivity was determined by liquid scintillation counting (LS 6000IC, Beckman Instruments, Inc., Fullerton, CA, USA).
as §3

MAO-B = biological target: T2, MAO-B (Sus scrofa, UniProt Q6PLK3); experiment: MAO-B activity, radiolabeled [14C]PEA substrate, pig brain mitochondria; assay type: biochemical; conditions: for IC50 / Hill Slope, MAO-B / Residual Activity, MAO-B: mean ± SEM, four measurements
T2 construct: from tissue; host or cells: pig brain cortex mitochondria
T2 sequence (Q6PLK3 1-520): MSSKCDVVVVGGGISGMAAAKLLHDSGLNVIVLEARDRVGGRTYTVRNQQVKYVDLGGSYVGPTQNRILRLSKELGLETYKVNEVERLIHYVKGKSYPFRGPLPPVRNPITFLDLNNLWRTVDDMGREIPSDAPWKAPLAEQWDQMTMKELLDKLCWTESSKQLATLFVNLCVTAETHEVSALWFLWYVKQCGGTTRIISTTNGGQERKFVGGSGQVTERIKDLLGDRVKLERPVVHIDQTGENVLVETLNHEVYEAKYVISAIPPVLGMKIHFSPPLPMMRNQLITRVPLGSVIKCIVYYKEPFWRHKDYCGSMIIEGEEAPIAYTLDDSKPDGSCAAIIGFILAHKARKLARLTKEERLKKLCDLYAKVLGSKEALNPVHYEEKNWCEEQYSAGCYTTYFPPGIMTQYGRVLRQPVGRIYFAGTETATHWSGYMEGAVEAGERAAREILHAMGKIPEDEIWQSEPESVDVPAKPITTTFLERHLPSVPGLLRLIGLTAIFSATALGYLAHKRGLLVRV
Description: as §4, §3

citrate synthase (CS) = biological target: T3, citrate synthase (CS) (Sus scrofa, UniProt P00889); experiment: Activity of citrate synthase in pig brain mitochondria; assay type: biochemical; conditions: mean ± SD, N = 3
T3 construct: used to determinate mitochondrial enzymes activities (ETC complexes, CS, malate dehydrogenase, and MAO); from tissue; host or cells: pig brain cortex mitochondria (frozen, ultrasonicated)
T3 sequence (P00889 28-464): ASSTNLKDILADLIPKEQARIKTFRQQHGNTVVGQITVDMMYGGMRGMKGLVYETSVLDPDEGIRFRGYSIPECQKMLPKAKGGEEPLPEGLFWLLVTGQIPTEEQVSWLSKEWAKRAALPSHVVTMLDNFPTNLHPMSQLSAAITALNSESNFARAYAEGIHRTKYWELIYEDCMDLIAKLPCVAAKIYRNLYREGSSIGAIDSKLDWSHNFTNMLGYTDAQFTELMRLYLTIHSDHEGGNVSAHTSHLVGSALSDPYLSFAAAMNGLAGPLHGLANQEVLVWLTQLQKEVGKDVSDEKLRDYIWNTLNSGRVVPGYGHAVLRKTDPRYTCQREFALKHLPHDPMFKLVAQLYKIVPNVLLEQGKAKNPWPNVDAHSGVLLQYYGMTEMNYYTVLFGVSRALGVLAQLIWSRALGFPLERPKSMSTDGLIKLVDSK
Description: Ultrasonicated mitochondria were incubated with the tested drugs for 30 min at 30 °C, with a corresponding drug-free control for every measurement. The activities of mitochondrial enzymes were determined as the absorbance measured with a GENESYS 180 UV-Vis spectrophotometer (Thermo Fisher Scientific, Waltham, MA, USA). […] […] […] An ATP standard curve was constructed.

[2] = biological target: T4, malate dehydrogenase (MDH) (Sus scrofa, UniProt P00346); experiment: Activity of malate dehydrogenase in pig brain mitochondria; assay type: biochemical; conditions: mean ± SD, N = 3
T4 construct: used to determinate mitochondrial enzymes activities (ETC complexes, CS, malate dehydrogenase, and MAO); from tissue; host or cells: pig brain cortex mitochondria (frozen, ultrasonicated)
T4 sequence (P00346 25-338): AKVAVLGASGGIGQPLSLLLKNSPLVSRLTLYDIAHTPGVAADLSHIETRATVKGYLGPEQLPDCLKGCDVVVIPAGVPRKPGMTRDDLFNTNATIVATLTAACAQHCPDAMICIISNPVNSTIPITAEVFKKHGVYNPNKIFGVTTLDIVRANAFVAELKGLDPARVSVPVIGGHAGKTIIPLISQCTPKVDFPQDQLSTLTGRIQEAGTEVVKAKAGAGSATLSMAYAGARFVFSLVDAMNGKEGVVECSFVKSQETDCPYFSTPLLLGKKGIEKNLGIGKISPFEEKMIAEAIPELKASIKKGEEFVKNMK
Description: Ultrasonicated mitochondria were incubated with the tested drugs for 30 min at 30 °C, with a corresponding drug-free control for every measurement. The activities of mitochondrial enzymes were determined as the absorbance measured with a GENESYS 180 UV-Vis spectrophotometer (Thermo Fisher Scientific, Waltham, MA, USA). The conversion of oxaloacetate to malate was used to measure malate dehydrogenase (MDH) activity. The reaction was started by adding oxaloacetate and nicotinamide adenine dinucleotide (NADH) (measured at 340 nm for 3 min). […] […] An ATP standard curve was constructed.

[3] = test system: complex II-linked respiration in isolated mitochondria; experiment: Complex II-linked respiration, high-resolution respirometry in isolated mitochondria; assay type: biochemical, pig
Description: as §1
The high-resolution Oxygraph-2k (Oroboros Instruments Corp, Innsbruck, Austria) was used to measure mitochondrial oxygen consumption rate. […] The final protein concentration was 0.05–0.14 mg/mL.
as §2, §3

SMILES | Inhibition (partial/full), complex I-linked respiration [1] | IC50 [1] [µM] | Residual Activity, complex I-linked respiration [1] [rel.u.] | Inhibition (partial/full), MAO-A (MAO-A) | IC50 (MAO-A; mean ± SEM, four measurements) [µM] | Inhibition (partial/full), MAO-B (MAO-B) | IC50 (MAO-B) [µM] | CS (% of control) (citrate synthase (CS); 10 μM) | CS (% of control) (citrate synthase (CS); 100 μM) | MDH (% of control) ([2]; 10 μM) | MDH (% of control) ([2]; 100 μM) | Residual Activity, MAO-A (MAO-A; mean ± SEM, four measurements) [rel.u.] | Hill Slope, MAO-B (MAO-B) | Residual Activity, MAO-B (MAO-B) [rel.u.] | other results
CN(C)CCC[C@@]1(c2ccc(F)cc2)OCc2cc(C#N)ccc21 [escitalopram] | partial | 0.14 ± 0.08 | 0.774 ± 0.015 | full | 8.78 ± 2.27 | full | 15.2 ± 2.23 |  |  |  |  |  |  |  | Inhibition (partial/full), MAO-A (MAO-A; listed as ESC): full inhibitors; Inhibition (partial/full), MAO-B (MAO-B; listed as ESC): full inhibitors
Fc1ccc([C@@H]2CCNC[C@H]2COc2ccc3c(c2)OCO3)cc1 [paroxetine] | partial | 26.7 ± 6.73 | 0.672 ± 0.029 | full | 0.47 ± 0.06 | full | 2.19 ± 0.21 | 105.8 ± 1.69 % of control | 98.4 ± 0.85 % of control | 100.1 ± 2.22 % of control | 97.9 ± 1.71 % of control | 0.007 ± 0.017 | 1.06 ± 0.10 | 0.015 ± 0.021 | Inhibition (partial/full), MAO-A (MAO-A; listed as PAR): full inhibitors; Hill Slope, MAO-A (MAO-A; mean ± SEM, four measurements): 1.65 ± 0.22; Inhibition (partial/full), MAO-B (MAO-B; listed as PAR): full inhibitors
CC(NC(C)(C)C)C(=O)c1cccc(Cl)c1 (stereo not shown) [bupropion] |  |  |  | partial | 20.1 ± 5.68 | partial | 31.5 ± 3.32 | 105.6 ± 1.29 % of control | 99.5 ± 0.93 % of control | 99.2 ± 2.90 % of control | 99.6 ± 2.72 % of control | 0.235 ± 0.050 | 1.68 ± 0.20 | 0.410 ± 0.018 | Inhibition (partial/full), complex II-linked respiration [3]: partial; IC50 ([3]; four-parameter logistic, mean ± SEM, four measurements): 10.6 ± 4.49 µM; Inhibition (partial/full), complex II-linked respiration ([3]; listed as BUP): weak partial inhibitor; Residual Activity, complex II-linked respiration ([3]; mean ± SEM, four measurements): 0.690 ± 0.045 rel.u.; Inhibition (partial/full), MAO-A (MAO-A; listed as BUP): partial inhibitors; Inhibition (partial/full), MAO-B (MAO-B; listed as BUP): partial MAO-B inhibitors
